According to ChEMBL document CHEMBL3045216, “Synthesis and screening of 2-(2-(4-substituted piperazine-1-yl)-5-phenylthiazol-4-yl)-3-aryl quinazolinone derivatives as anticancer agents” (Med Chem Res, 2013):

Columns and labels:
[1] = tested on: HEK293; assay: Cytotoxicity against Homo sapiens (human) HEK293 cells assessed as inhibition of cell proliferation after 24 hr by MTT assay; assay type: cell-based; conditions: HEK293, 24 h
[2] = tested on: MCF7; assay: Anticancer activity against Homo sapiens (human) MCF7 cells assessed as inhibition of cell proliferation after 24 hr by MTT assay; assay type: functional, cell-based; conditions: MCF7, 24 h
[3] = Anticancer activity against Homo sapiens (human) NCI lung cancer cell assessed as inhibition of cell proliferation after 24 hr by MTT assay; assay type: functional, cell-based; conditions: Cancer cell lines

Compound: CN1CCN(c2nc(-c3ccccc3)c(-c3nc4ccccc4c(=O)n3-c3ccccc3)s2)CC1
- IC50 [1]: 860 nM
- IC50 [2]: 5.84 µM
- IC50 [3]: 9.89 µM

Compound: O=C(c1ccccc1)N1CCN(c2nc(-c3ccccc3)c(-c3nc4ccccc4c(=O)n3-c3ccccc3)s2)CC1
- IC50 [1]: 420 nM
- IC50 [2]: 19.9 µM
- IC50 [3]: 13.4 µM

Compound: O=c1c2ccccc2nc(-c2sc(N3CCNCC3)nc2-c2ccccc2)n1-c1ccccc1
- IC50 [1]: 740 nM
- IC50 [2]: 46.7 µM
- IC50 [3]: 2.66 µM

Compound: CN1CCN(c2nc(-c3ccccc3)c(-c3nc4ccccc4c(=O)n3Nc3ccccc3)s2)CC1
- IC50 [1]: 3030 nM
- IC50 [2]: 0.16 µM
- IC50 [3]: 1.11 µM

Compound: O=C(c1ccccc1)N1CCN(c2nc(-c3ccccc3)c(-c3nc4ccccc4c(=O)n3Nc3ccccc3)s2)CC1
- IC50 [1]: 800 nM
- IC50 [2]: 2.49 µM
- IC50 [3]: 5.59 µM

Compound: COc1ccc(Nn2c(-c3sc(N4CCNCC4)nc3-c3ccccc3)nc3ccccc3c2=O)cc1
- IC50 [1]: 1110 nM
- IC50 [2]: 11.4 µM
- IC50 [3]: 2.92 µM

Compound: O=C(c1ccccc1)N1CCN(c2nc(-c3ccccc3)c(-c3nc4ccccc4c(=O)n3-c3ccc(Cl)cc3)s2)CC1
- IC50 [1]: 690 nM
- IC50 [2]: > 100 µM
- IC50 [3]: 15.6 µM

Compound: CN1CCN(c2nc(-c3ccccc3)c(-c3nc4ccccc4c(=O)n3-c3ccc(Cl)cc3)s2)CC1
- IC50 [1]: 940 nM
- IC50 [2]: 1.97 µM
- IC50 [3]: > 100 µM

Compound: O=c1c2ccccc2nc(-c2sc(N3CCNCC3)nc2-c2ccccc2)n1-c1ccc(Cl)cc1
- IC50 [1]: 14400 nM
- IC50 [2]: > 100 µM
- IC50 [3]: 6.1 µM

Compound: COc1ccccc1-n1c(-c2sc(N3CCN(C)CC3)nc2-c2ccccc2)nc2ccccc2c1=O
- IC50 [1]: 670 nM
- IC50 [2]: 1.5 µM
- IC50 [3]: 9.43 µM

Compound: COc1ccccc1-n1c(-c2sc(N3CCNCC3)nc2-c2ccccc2)nc2ccccc2c1=O
- IC50 [1]: 550 nM
- IC50 [2]: 3.7 µM
- IC50 [3]: 4.33 µM

Compound: COc1ccccc1-n1c(-c2sc(N3CCN(C(=O)c4ccccc4)CC3)nc2-c2ccccc2)nc2ccccc2c1=O
- IC50 [1]: 2290 nM
- IC50 [2]: 0.66 µM
- IC50 [3]: 5.93 µM

Compound: CN1CCN(c2nc(-c3ccccc3)c(-c3nc4ccccc4c(=O)n3-c3ccccc3[N+](=O)[O-])s2)CC1
- IC50 [1]: 810 nM
- IC50 [2]: 8.9 µM
- IC50 [3]: 6.72 µM

Compound: O=c1c2ccccc2nc(-c2sc(N3CCNCC3)nc2-c2ccccc2)n1-c1ccccc1[N+](=O)[O-]
- IC50 [1]: 1070 nM
- IC50 [2]: 5.86 µM
- IC50 [3]: 8.39 µM

Compound: O=C(c1ccccc1)N1CCN(c2nc(-c3ccccc3)c(-c3nc4ccccc4c(=O)n3-c3ccccc3[N+](=O)[O-])s2)CC1
- IC50 [1]: 730 nM
- IC50 [2]: 6.49 µM
- IC50 [3]: 11 µM

Compound: O=c1[nH]cc(F)c(=O)[nH]1 [FLUOROURACIL]
- IC50 [1]: 2150 nM
- IC50 [2]: 1.25 µM
- IC50 [3]: 2.3 µM

Compound: CN(Cc1cnc2nc(N)nc(N)c2n1)c1ccc(C(=O)N[C@@H](CCC(=O)O)C(=O)O)cc1 [METHOTREXATE]
- IC50 [1]: 1270 nM
- IC50 [2]: 2.26 µM
- IC50 [3]: 2.2 µM
